# In patent US12617783B2, “Heterocyclic GLP-1R agonists” (BIOMEA FUSION, INC., priority 2024, dated 2026):
# Target: T1, human GLP-1R (Homo sapiens, UniProt P43220)
# T1 construct: host or cells: HEK293
# Assay: GLP-1R cAMP assay (Example B1b, HTRF, 30 min at 37°)
# Assay type: cell-based
# Conditions: cAMP accumulation in HEK293 expressing human GLP-1R, no BETP, 30 min at 37° (Method B1b), Table 1
# Description: Assay was carried out with HEK293 expressing human GLP-1R using HTRF assay, developed by Wuxi Apptec. The method is a competitive assay between native cAMP produced by the cells and exogenous cAMP labeled with a proprietary dye d2. The tracer binding is visualized by a mAb anti-cAMP labeled with Cryptate. The signal (i.e. energy transfer) is inversely proportional to the concentration of CAMP in either standard or experimental sample. Compounds were tested in the absence of BETP. Ten microliter of cell suspension in assay buffer (5 mM HEPES, 500 μM IBMX, 0.1% BSA) were added to each well (1,000 cells per well) in a low volume 384-well plate for the assay. Serially diluted compounds were added in 100 nL volume to duplicate wells, by Labcyte Echo. GLP-1 (7-37) was used as positive control. Assay plate was incubated for 30 minutes at 37°. Stock of cAMP Detection Solution was prepared by mixing 38 parts of cAMP lysis buffer, 1 part of cAMP-D2, 1 part of anti-cAMP cryptate reagent (Cisbio #62AM4PEJ). Ten microliter of the cAMP Detection Solution was added to each well, and the assay plate was incubated for 1 hour at room temperature in the dark. Plates were read on Envision plate reader. The data were analyzed by ScreenUltra in Dotmatics, with % activation expressed using following formula: (Signal ratio […]*10000−negative control)/(postive control−negative control)*100. Dose response curves were plotted and EC50 values calculated by non-linear regression using 4-parameter fit. The potency (EC50) values for cAMP accumulation in HEK293 cells are reported in the Table 1 below (for compounds ID 610-708).
# T1 sequence (P43220 24-463): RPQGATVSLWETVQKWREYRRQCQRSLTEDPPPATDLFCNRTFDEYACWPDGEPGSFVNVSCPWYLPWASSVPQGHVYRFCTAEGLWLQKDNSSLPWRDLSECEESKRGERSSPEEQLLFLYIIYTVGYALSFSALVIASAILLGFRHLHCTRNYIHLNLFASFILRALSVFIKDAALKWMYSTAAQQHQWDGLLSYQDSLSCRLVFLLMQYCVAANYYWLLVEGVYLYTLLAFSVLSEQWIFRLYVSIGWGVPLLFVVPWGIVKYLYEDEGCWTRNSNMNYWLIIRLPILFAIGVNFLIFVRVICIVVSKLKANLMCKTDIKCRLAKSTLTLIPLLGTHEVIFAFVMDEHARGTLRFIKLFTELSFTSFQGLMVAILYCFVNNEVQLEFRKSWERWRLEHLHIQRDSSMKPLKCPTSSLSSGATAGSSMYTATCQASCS
row,EC50 [µM],SMILES
1,0.0006,"Cc1cc(-n2nc3c(c2-n2ccn(-c4ccc5cnccc5c4F)c2=O)[C@@H]2CCC[C@H](C3)N2C(=O)c2cc3cc([C@H]4CCOC5(CC5)C4)ccc3n2[C@@]2(c3noc(=O)[nH]3)C[C@@H]2C)cc(C)c1F [Compound 614, 3-((1S,2S)-1-(2-((4S,8R)-2-(4-fluoro-3,5-dimethylphenyl)-3-(3-(5-fluoroisoquinolin-6-yl)-2-oxo-2,3-dihydro-1H-imidazol-1-yl)-4,5,6,7,8,9-hexahydro-2H-4,8-epiminocycloocta [c]pyrazole-10-carbonyl)-5-((S)-4-oxaspiro[2.5]octan-7-yl)-1H-indol-1-yl)-2-methylcyclopropyl)-1,2,4-oxadiazol-5 (4H)-one]"
2,0.0142,"Cc1cc(-n2nc3c(c2-n2ccn(-c4ccc5c(cnn5C)c4F)c2=O)[C@@H]2CCC[C@H](C3)N2C(=O)c2cc3cc(C4CCOC(C)(C)C4)cc(F)c3n2[C@@]2(c3noc(=O)[nH]3)C[C@@H]2C)cc(C)c1F (stereo partly drawn) [Compound 615, 3-((1S,2S)-1-(5-(2,2-dimethyltetrahydro-2H-pyran-4-yl)-7-fluoro-2-((4S,8R)-3-(3-(4-fluoro-1-methyl-1H-indazol-5-yl)-2-oxo-2,3-dihydro-1H-imidazol-1-yl)-2-(4-fluoro-3,5-dimethylphenyl)-4,5,6,7,8,9-hexahydro-2H-4,8-epiminocycloocta [c]pyrazole-10-carbonyl)-1H-indol-1-yl)-2-methylcyclopropyl)-1,2,4-oxadiazol-5 (4H)-one]"
3,0.0025,"Cc1cc(-n2nc3c(c2-n2ccn(-c4ccc5c(cnn5C5CC5)c4F)c2=O)[C@@H]2COC[C@H](C3)N2C(=O)c2cc3cc([C@H]4CCOC(C)(C)C4)ccc3n2[C@@]2(c3noc(=O)[nH]3)C[C@@H]2C)cc(C)c1F [Compound 617, 3-((1S,2S)-1-(2-((4R,8S)-3-(3-(1-cyclopropyl-4-fluoro-1H-indazol-5-yl)-2-oxo-2,3-dihydro-1H-imidazol-1-yl)-2-(4-fluoro-3,5-dimethylphenyl)-2,4,5,7,8,9-hexahydro-4,8-epiminooxocino [5,4-c]pyrazole-10-carbonyl)-5-((S)-2,2-dimethyltetrahydro-2H-pyran-4-yl)-1H-indol-1-yl)-2-methylcyclopropyl)-1,2,4-oxadiazol-5 (4H)-one]"
4,0.0296,"Cc1cc(-n2nc3c(c2-n2ccn(-c4ccc5c(cnn5C)c4F)c2=O)[C@@H]2CC[C@H](C3)N2C(=O)c2cc3cc(C4CCOC(C)(C)C4)cc(F)c3n2[C@@]2(c3noc(=O)[nH]3)C[C@@H]2C)cc(C)c1F (stereo partly drawn) [Compound 618, 3-[(1S,2S)-1-[5-(2,2-dimethyltetrahydropyran-4-yl)-7-fluoro-2-[(1S,8R)-4-(4-fluoro-3,5-dimethyl-phenyl)-3-[3-(4-fluoro-1-methyl-indazol-5-yl)-2-oxo-imidazol-1-yl]-4,5,11-triazatricyclo[6.2.1.02,6]undeca-2,5-diene-11-carbonyl]indol-1-yl]-2-methyl-cyclopropyl]-4H-1,2,4-oxadiazol-5-one]"
5,0.0054,"Cc1cc(-n2nc3c(c2-n2ccn(-c4ccc5c(cnn5C)c4F)c2=O)[C@@H]2COC[C@H](C3)N2C(=O)c2cc3cc(C4CCOC(C)(C)C4)cc(F)c3n2[C@@]2(c3noc(=O)[nH]3)C[C@@H]2C)cc(C)c1F (stereo partly drawn) [Compound 619, 3-((1S,2S)-1-(5-(2,2-dimethyltetrahydro-2H-pyran-4-yl)-7-fluoro-2-((4R,8S)-3-(3-(4-fluoro-1-methyl-1H-indazol-5-yl)-2-oxo-2,3-dihydro-1H-imidazol-1-yl)-2-(4-fluoro-3,5-dimethylphenyl)-2,4,5,7,8,9-hexahydro-4,8-epiminooxocino [5,4-c]pyrazole-10-carbonyl)-1H-indol-1-yl)-2-methylcyclopropyl)-1,2,4-oxadiazol-5(4H)-one]"
6,> 0.1,"Cc1cc(-n2nc3c(c2-n2ccn(-c4ccc5c(cnn5C)c4F)c2=O)[C@@H]2CCC[C@H](C3)N2C(=O)c2cc3cc([C@@H]4CCOC(C)(C)C4)cc(F)c3n2[C@@]2(c3noc(=O)[nH]3)C[C@@H]2C)cc(C)c1F [Compound 701, 3-((1S,2S)-1-(5-((R)-2,2-dimethyltetrahydro-2H-pyran-4-yl)-7-fluoro-2-((4S,8R)-3-(3-(4-fluoro-1-methyl-1H-indazol-5-yl)-2-oxo-2,3-dihydro-1H-imidazol-1-yl)-2-(4-fluoro-3,5-dimethylphenyl)-4,5,6,7,8,9-hexahydro-2H-4,8-epiminocycloocta [c]pyrazole-10-carbonyl)-1H-indol-1-yl)-2-methylcyclopropyl)-1,2,4-oxadiazol-5 (4H)-one]"
7,> 0.1,"Cc1cc(-c2nn3c(c2-n2ccn(-c4ccc5c(cnn5C)c4F)c2=O)[C@@H](C)N(C(=O)c2cc4cc([C@H]5CCOC(C)(C)C5)ccc4n2[C@@]2(c4noc(=O)[nH]4)C[C@@H]2C)CCC3)cc(C)c1F [Compound 702, 3-((1S,2S)-1-(5-((S)-2,2-dimethyltetrahydro-2H-pyran-4-yl)-2-((R)-3-(3-(4-fluoro-1-methyl-1H-indazol-5-yl)-2-oxo-2,3-dihydro-1H-imidazol-1-yl)-2-(4-fluoro-3,5-dimethylphenyl)-4-methyl-5,6,7,8-tetrahydro-4H-pyrazolo[1,5-a][1,4]diazepine-5-carbonyl)-1H-indol-1-yl)-2-methylcyclopropyl)-1,2,4-oxadiazol-5 (4H)-one]"
8,0.0024,"Cc1cc(-c2nn3c(c2-n2ccn(-c4ccc5c(cnn5C)c4F)c2=O)[C@H](C)N(C(=O)c2cc4cc([C@H]5CCOC(C)(C)C5)ccc4n2[C@@]2(c4noc(=O)[nH]4)C[C@@H]2C)CCC3)cc(C)c1F [Compound 703, 3-((1S,2S)-1-(5-((S)-2,2-dimethyltetrahydro-2H-pyran-4-yl)-2-((S)-3-(3-(4-fluoro-1-methyl-1H-indazol-5-yl)-2-oxo-2,3-dihydro-1H-imidazol-1-yl)-2-(4-fluoro-3,5-dimethylphenyl)-4-methyl-5,6,7,8-tetrahydro-4H-pyrazolo[1,5-a][1,4]diazepine-5-carbonyl)-1H-indol-1-yl)-2-methylcyclopropyl)-1,2,4-oxadiazol-5 (4H)-one]"
9,0.0024,"Cc1cc(-n2nc3c(c2-n2ccn(-c4ccc5c(cnn5C)c4F)c2=O)[C@@H]2COC[C@H](C3)N2C(=O)c2cc3cc([C@H]4CCOC(C)(C)C4)cc(F)c3n2[C@@]2(c3noc(=O)[nH]3)C[C@@H]2C)cc(C)c1F [Compound 705, 3-((1S,2S)-1-(5-((S)-2,2-dimethyltetrahydro-2H-pyran-4-yl)-7-fluoro-2-((4R,8S)-3-(3-(4-fluoro-1-methyl-1H-indazol-5-yl)-2-oxo-2,3-dihydro-1H-imidazol-1-yl)-2-(4-fluoro-3,5-dimethylphenyl)-2,4,5,7,8,9-hexahydro-4,8-epiminooxocino [5,4-c]pyrazole-10-carbonyl)-1H-indol-1-yl)-2-methylcyclopropyl)-1,2,4-oxadiazol-5(4H)-one]"
10,0.059,"Cc1cc(-n2nc3c(c2-n2ccn(-c4ccc5c(cnn5C)c4F)c2=O)[C@@H]2COC[C@H](C3)N2C(=O)c2cc3cc([C@@H]4CCOC(C)(C)C4)cc(F)c3n2[C@@]2(c3noc(=O)[nH]3)C[C@@H]2C)cc(C)c1F [Compound 706, 3-((1S,2S)-1-(5-((R)-2,2-dimethyltetrahydro-2H-pyran-4-yl)-7-fluoro-2-((4R,8S)-3-(3-(4-fluoro-1-methyl-1H-indazol-5-yl)-2-oxo-2,3-dihydro-1H-imidazol-1-yl)-2-(4-fluoro-3,5-dimethylphenyl)-2,4,5,7,8,9-hexahydro-4,8-epiminooxocino [5,4-c]pyrazole-10-carbonyl)-1H-indol-1-yl)-2-methylcyclopropyl)-1,2,4-oxadiazol-5 (4H)-one]"
